Experimental data: ChEMBL document CHEMBL1201862, “PubChem BioAssay data set” (2004)
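All cell lines were grown in 96-well plates and treated with compound for 48 hours. GI50: concentration for 50% inhibition of growth.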 The source made the active and inactive calls. Rule as the data show it: active = GI50 up to about 1.1 µM and inactive = higher. Where a SMILES comes first, the peptide text is derived from it. [ ]: non-standard residue; d: D form. The star is where a group is joined. Phe(4-NO2) = N[CH](Cc1ccc([N+](=O)[O-])cc1)C(=O)O; Boc = CC(C)(C)OC(=O)*; OtBu = CC(C)(C)O*

What was measured:
Assay in all cases: growth of human tumour cells (NCI), 48 h
RXF 393 = system: RXF 393
T47D = system: T47D
OVCAR-3 = system: OVCAR-3
NCI-H522 = system: NCI-H522
OVCAR-8 = system: OVCAR-8
HCT-116 = system: HCT-116
MDA-N = system: MDA-N
KM12 = system: KM12
Hs-578T = system: Hs-578T
NCI-H460 = system: NCI-H460
UO-31 = system: UO-31
NCI-H23 = system: NCI-H23
COLO 205 = system: COLO 205
M14 = system: M14
786-0 = system: 786-0
ACHN = system: ACHN
SK-MEL-28 = system: SK-MEL-28
SW-620 = system: SW-620
HOP-92 = system: HOP-92
IGROV-1 = system: IGROV-1

Q: For `Nc1ccccc1.O=P(O)(OP(=O)(O)c1ccccc1)c1ccccc1`, which GI50 (RXF 393) is on record?
A: Its GI50 is > 100 µM (inactive).

Q: What about the GI50 (T47D) of the same compound?
A: The GI50 was > 100 µM (inactive).

Q: And the GI50 (OVCAR-3)?
A: Its GI50 is > 100 µM (inactive).

Q: And the GI50 (NCI-H522)?
A: Its GI50 is > 100 µM (inactive).

Q: And the GI50 (OVCAR-8)?
A: Its GI50 is > 100 µM (inactive).

Q: And the GI50 (HCT-116)?
A: Its GI50 is > 100 µM (inactive).

Q: What about the GI50 (MDA-N) of the same compound?
A: Its GI50 is > 100 µM (inactive).

Q: And the GI50 (KM12)?
A: The GI50 was > 100 µM (inactive).

Q: And the GI50 (Hs-578T)?
A: The GI50 was > 100 µM (inactive).

Q: And the GI50 (NCI-H460)?
A: The GI50 was > 100 µM (inactive).

Q: And the GI50 (UO-31)?
A: Its GI50 is > 100 µM (inactive).

Q: What about the GI50 (NCI-H23) of the same compound?
A: The GI50 was > 100 µM (inactive).

Q: What about the GI50 (COLO 205) of the same compound?
A: The GI50 was > 100 µM (inactive).

Q: What about the GI50 (M14) of the same compound?
A: Its GI50 is > 100 µM (inactive).

Q: And the GI50 (786-0)?
A: Its GI50 is > 100 µM (inactive).

Q: And the GI50 (ACHN)?
A: Its GI50 is > 100 µM (inactive).

Q: What about the GI50 (SK-MEL-28) of the same compound?
A: Its GI50 is > 100 µM (inactive).

Q: What about the GI50 (SW-620) of the same compound?
A: Its GI50 is > 100 µM (inactive).

Q: And the GI50 (HOP-92)?
A: Its GI50 is > 100 µM (inactive).

Q: What about the GI50 (IGROV-1) of the same compound?
A: Its GI50 is > 100 µM (inactive).

Q: `O=C(c1no[n+]([O-])c1C(=O)c1csc2ccccc12)c1csc2ccccc12` was tested. Which GI50 (RXF 393) did it give?
A: Its GI50 is 7.19 µM (inactive).

Q: And the GI50 (T47D)?
A: Its GI50 is 5.96 µM (inactive).

Q: What about the GI50 (OVCAR-3) of the same compound?
A: The GI50 was 1.86 µM (inactive).

Q: What about the GI50 (NCI-H522) of the same compound?
A: The GI50 was 0.652 µM (active).

Q: And the GI50 (OVCAR-8)?
A: The GI50 was 3.09 µM (inactive).

Q: What about the GI50 (HCT-116) of the same compound?
A: Its GI50 is 8.85 µM (inactive).

Q: What about the GI50 (MDA-N) of the same compound?
A: The GI50 was 8.69 µM (inactive).

Q: What about the GI50 (KM12) of the same compound?
A: The GI50 was 6.95 µM (inactive).

Q: What about the GI50 (Hs-578T) of the same compound?
A: The GI50 was 10.2 µM (inactive).

Q: What about the GI50 (NCI-H460) of the same compound?
A: The GI50 was 13.2 µM (inactive).

Q: What about the GI50 (UO-31) of the same compound?
A: The GI50 was 0.505 µM (active).

Q: What about the GI50 (NCI-H23) of the same compound?
A: Its GI50 is 14.1 µM (inactive).

Q: What about the GI50 (COLO 205) of the same compound?
A: The GI50 was 3.06 µM (inactive).

Q: And the GI50 (M14)?
A: The GI50 was 9.04 µM (inactive).

Q: And the GI50 (786-0)?
A: Its GI50 is 0.27 µM (active).

Q: And the GI50 (ACHN)?
A: The GI50 was 4.54 µM (inactive).

Q: What about the GI50 (SK-MEL-28) of the same compound?
A: The GI50 was 4.09 µM (inactive).

Q: And the GI50 (SW-620)?
A: The GI50 was 2.21 µM (inactive).

Q: What about the GI50 (HOP-92) of the same compound?
A: Its GI50 is 2.16 µM (inactive).

Q: What about the GI50 (IGROV-1) of the same compound?
A: The GI50 was 1.4 µM (inactive).

Q: For `O=C(O)c1ccc(OCc2nc3cc(C(F)(F)F)ccc3nc2-c2ccccc2)cc1`, which GI50 (RXF 393) is on record?
A: Its GI50 is 36.8 µM (inactive).

Q: And the GI50 (T47D)?
A: The GI50 was 50.7 µM (inactive).

Q: And the GI50 (OVCAR-3)?
A: The GI50 was 34.8 µM (inactive).

Q: And the GI50 (NCI-H522)?
A: The GI50 was 74.6 µM (inactive).

Q: What about the GI50 (OVCAR-8) of the same compound?
A: Its GI50 is 41.9 µM (inactive).

Q: And the GI50 (HCT-116)?
A: The GI50 was 36.9 µM (inactive).

Q: And the GI50 (MDA-N)?
A: The GI50 was 46.1 µM (inactive).

Q: And the GI50 (KM12)?
A: The GI50 was 30.1 µM (inactive).

Q: And the GI50 (Hs-578T)?
A: Its GI50 is 43.5 µM (inactive).

Q: And the GI50 (NCI-H460)?
A: The GI50 was 24.7 µM (inactive).

Q: What about the GI50 (UO-31) of the same compound?
A: Its GI50 is 22 µM (inactive).

Q: And the GI50 (NCI-H23)?
A: Its GI50 is 36.8 µM (inactive).

Q: What about the GI50 (COLO 205) of the same compound?
A: The GI50 was 19.8 µM (inactive).

Q: And the GI50 (M14)?
A: Its GI50 is 80.4 µM (inactive).

Q: And the GI50 (786-0)?
A: Its GI50 is 98.4 µM (inactive).

Q: And the GI50 (ACHN)?
A: The GI50 was 30.9 µM (inactive).

Q: What about the GI50 (SK-MEL-28) of the same compound?
A: The GI50 was 61 µM (inactive).

Q: And the GI50 (SW-620)?
A: Its GI50 is 53.2 µM (inactive).

Q: And the GI50 (HOP-92)?
A: Its GI50 is 29 µM (inactive).

Q: What about the GI50 (IGROV-1) of the same compound?
A: Its GI50 is 56 µM (inactive).

Q: For `COC(=O)C(Cc1ccc([N+](=O)[O-])cc1)NC(=O)C(CC(=O)OC(C)(C)C)NC(=O)OC(C)(C)C` (stereo not given) (Boc-Asp(OtBu)-[Phe(4-NO2)]-OMe; configuration not given here), which GI50 (RXF 393) is on record?
A: The GI50 was > 100 µM (inactive).

Q: What about the GI50 (T47D) of the same compound?
A: The GI50 was > 100 µM (inactive).

Q: What about the GI50 (OVCAR-3) of the same compound?
A: Its GI50 is > 100 µM (inactive).

Q: What about the GI50 (NCI-H522) of the same compound?
A: Its GI50 is 63.5 µM (inactive).

Q: And the GI50 (OVCAR-8)?
A: Its GI50 is 38.1 µM (inactive).

Q: And the GI50 (HCT-116)?
A: The GI50 was > 100 µM (inactive).

Q: What about the GI50 (MDA-N) of the same compound?
A: The GI50 was > 100 µM (inactive).

Q: What about the GI50 (KM12) of the same compound?
A: Its GI50 is > 100 µM (inactive).

Q: What about the GI50 (Hs-578T) of the same compound?
A: Its GI50 is 20.1 µM (inactive).

Q: And the GI50 (NCI-H460)?
A: The GI50 was > 100 µM (inactive).

Q: What about the GI50 (UO-31) of the same compound?
A: Its GI50 is 14.3 µM (inactive).

Q: What about the GI50 (NCI-H23) of the same compound?
A: The GI50 was > 100 µM (inactive).

Q: What about the GI50 (COLO 205) of the same compound?
A: The GI50 was 30.2 µM (inactive).

Q: And the GI50 (M14)?
A: Its GI50 is 29.4 µM (inactive).

Q: What about the GI50 (786-0) of the same compound?
A: The GI50 was > 100 µM (inactive).

Q: What about the GI50 (ACHN) of the same compound?
A: Its GI50 is > 100 µM (inactive).

Q: What about the GI50 (SK-MEL-28) of the same compound?
A: The GI50 was 25.5 µM (inactive).

Q: What about the GI50 (SW-620) of the same compound?
A: Its GI50 is > 100 µM (inactive).

Q: What about the GI50 (HOP-92) of the same compound?
A: The GI50 was > 100 µM (inactive).

Q: What about the GI50 (IGROV-1) of the same compound?
A: Its GI50 is > 100 µM (inactive).

Q: How did the GI50 (RXF 393) turn out when `CCCCCCCCCCCCCC(=O)O[C@H]1CC[C@H](NC(=O)[C@H](OC)[C@H](O)[C@@H](O)[C@H](O)/C=C/C(C)C)C(=O)NC1` [BENGAMIDE A] was run?
A: The GI50 was 0.175 µM (active).

Q: What about the GI50 (T47D) of the same compound?
A: The GI50 was 0.01 µM (active).

Q: And the GI50 (OVCAR-3)?
A: The GI50 was 0.0147 µM (active).

Q: And the GI50 (NCI-H522)?
A: Its GI50 is 0.011 µM (active).

Q: And the GI50 (OVCAR-8)?
A: Its GI50 is 0.00828 µM (active).

Q: And the GI50 (HCT-116)?
A: Its GI50 is 0.00512 µM (active).

Q: What about the GI50 (MDA-N) of the same compound?
A: Its GI50 is 0.0598 µM (active).

Q: And the GI50 (KM12)?
A: The GI50 was 0.00512 µM (active).

Q: And the GI50 (Hs-578T)?
A: Its GI50 is 0.237 µM (active).

Q: And the GI50 (NCI-H460)?
A: Its GI50 is 0.00512 µM (active).

Q: What about the GI50 (UO-31) of the same compound?
A: Its GI50 is 0.106 µM (active).

Q: What about the GI50 (NCI-H23) of the same compound?
A: The GI50 was 0.0113 µM (active).

Q: And the GI50 (COLO 205)?
A: Its GI50 is 0.00512 µM (active).

Q: What about the GI50 (M14) of the same compound?
A: The GI50 was 0.00601 µM (active).

Q: And the GI50 (786-0)?
A: The GI50 was 0.00512 µM (active).

Q: And the GI50 (ACHN)?
A: The GI50 was 0.0592 µM (active).

Q: And the GI50 (SK-MEL-28)?
A: The GI50 was < 0.0103 µM (active).

Q: What about the GI50 (SW-620) of the same compound?
A: The GI50 was 0.00512 µM (active).

Q: And the GI50 (HOP-92)?
A: The GI50 was 0.0204 µM (active).

Q: And the GI50 (IGROV-1)?
A: Its GI50 is 0.00708 µM (active).
